{"source": "patent US20030104603A1", "about": "“Protein” (priority 2001, published 2003)", "test_system": "mouse EST cluster TC20248 (CitE homolog gene) in white adipose tissue", "test": "Affymetrix GeneChip analysis of white adipose tissue mRNA from β3-agonist treated mice", "assay_type": "in vivo", "conditions": "male C57B1/6J mice, CL 316,243 1 mg/kg injected every 12 h, 2 doses, white adipose tissue collected at 24 h, versus saline control, Mu19K GeneChips", "description": "Male C57B1/6J mice, 12 weeks old, were housed under conditions of ambient temperature and free access to water and chow. Either the β3-selective agonist CL 316,243 (1mg/kg) or saline was injected every 12h with 2 doses during a total period of 24 hours. The animals were decapitated 24 h after the experiment was started, and the white adipose tissue was quickly collected and immediately frozen into liquid nitrogen.\nPolyA^+ mRNAs were extracted from white adipose tissue from control and β3-agonist treated mice respectively. They were reverse transcribed using a T7-tagged oligo-dT primer and double-stranded cDNAs were generated. These cDNAs were then amplified and labeled using In vitro transcription (IVT) with T7 RNA polymerase and biotinylated nucleotides. The populations of cRNAs obtained after IVT were purified and fragmented by heat to produce a distribution of RNA fragment sizes from approximately 35 to 200 bases. […] The cartridges were scanned using a Hewlett-Packard confocal scanner and the images were analyzed with the GeneChip 3.1 software (Affymetrix). The identity of the genes represented on the Affymetrix GeneChips was assessed by performing searches using BLAST (Altschul et al., J. Molec. Biol., 1990, 215, 403-410), which is incorporated herein by reference in its entirety) on available protein sequence databanks. […]"}
{"smiles": "C[C@H](Cc1ccc2c(c1)OC(C(=O)[O-])(C(=O)[O-])O2)NC[C@H](O)c1cccc(Cl)c1.[Na+].[Na+]", "note": "[CL 316,243]", "values": [{"measurement": "transcriptional change of the CitE homolog gene (TIGR Mouse Gene Index TC20248)", "value": "down-regulated"}, {"measurement": "transcriptional change of the CitE homolog gene (TIGR Mouse Gene Index TC20248)", "setting": "listed as β3-agonist", "value": "downregulated by a factor of two"}]}
